Measured values from PMC11613273, “High-Affinity Peptides for Target Protein Screened in Ultralarge Virtual Libraries” (ACS Central Science, 2024).
Where no end group is shown, it is not given here.

Tests used:
SARS-CoV-2 RBD = SARS-CoV-2 RBD (Severe acute respiratory syndrome coronavirus 2, UniProt P0DTC2); format: binding; conditions: maximum steady-state BLI response signal from fit
Noro P-domain = Noro P-domain (Norovirus Hu/GII.4/Sydney/NSW0514/2012/AU, UniProt K4LM89); assay: BLI analysis, steady-state; format: binding, Norovirus GII.4; conditions: maximum steady-state BLI response signal from fit
AFP = target: T1, AFP (Homo sapiens, UniProt P02771); assay: BLI analysis, steady-state; format: binding; conditions: for Kd: BLI Octet Red96, biotinylated target on SSA sensors, peptide 3.125 to 200 nM, 25°C, kinetics buffer (10 mM PBS, 0.1% BSA, 0.05% Tween-20), steady-state fit, 1:1 model; for Rmax: maximum steady-state BLI response signal from fit
T1 construct: purchased Sino Biological Co., LTD; (Beijing)
T1 sequence (P02771 19-609): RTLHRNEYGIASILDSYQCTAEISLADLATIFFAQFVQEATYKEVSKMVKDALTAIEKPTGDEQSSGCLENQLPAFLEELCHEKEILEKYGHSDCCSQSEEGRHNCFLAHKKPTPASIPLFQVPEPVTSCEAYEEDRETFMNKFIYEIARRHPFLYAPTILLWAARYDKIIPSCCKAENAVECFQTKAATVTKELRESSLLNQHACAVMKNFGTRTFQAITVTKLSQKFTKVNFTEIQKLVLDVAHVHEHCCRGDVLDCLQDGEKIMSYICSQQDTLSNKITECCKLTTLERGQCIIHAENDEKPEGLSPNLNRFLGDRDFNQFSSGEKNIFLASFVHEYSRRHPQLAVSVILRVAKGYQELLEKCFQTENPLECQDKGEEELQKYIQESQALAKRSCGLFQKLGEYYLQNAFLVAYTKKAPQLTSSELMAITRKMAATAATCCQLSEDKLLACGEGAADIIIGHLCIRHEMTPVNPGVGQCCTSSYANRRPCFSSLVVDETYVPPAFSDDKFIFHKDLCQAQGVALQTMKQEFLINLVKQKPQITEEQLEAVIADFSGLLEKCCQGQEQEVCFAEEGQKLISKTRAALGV

Sequence | Rmax (SARS-CoV-2 RBD) | Rmax (Noro P-domain) | Kd (AFP) | Rmax (AFP)
CPPPAPQFPFPWPPW [Pep-2458] | 0.2149±0.0080 nm |  |  | 
CPPPFPGRPPPWPPF [Pep-1927] | 0.1296±0.0076 nm |  |  | 
CPPPPPYYKPPGHPP [Pep-6626] | 0.1940±0.0063 nm |  |  | 
FFGPPPWPPPPPPWY [Pep-3076] |  | 0.4267±0.0208 nm |  | 
FPPPPPHPWPPPPWA [Pep-21] |  | 0.7092±0.0344 nm |  | 
FPPPPWWDWPPPPWW [Pep-595] |  | 0.4957±0.0130 nm |  | 
PIWWYHAEKPEHWPI [Pep-5890] |  |  | 74.8 ± 11 nM | 0.2242±0.0144 nm
WWALEHYPPPYMQIW [Pep-6973] |  |  | 69.3 ± 14.4 nM | 0.2449±0.0216 nm
WWWWWPHHDWKLVWC [Pep-7937] |  |  | 40.6 ± 7.31 nM | 0.0945±0.0061 nm
